Here are results for 10 compounds from patent US20100234592A1, “Corrosion Inhibitors Having Increased Biodegradability and Reduced Toxicity” (priority 2006, published 2010).

The test system of one data set is Skeletonema costatum. Kind of data set: Toxicity (EC50 Skeletonema costatum). It is filed as cell-based.
Data set [1] in a line: LPR test (test conditions analogous to ASTM D 2776). More on the design: concentration or dose not given beside the values. The procedure:
The products were also tested in the LPR test (test conditions analogous to ASTM D 2776).

Another data set in a line: Shaking foam test. To be noted: 50 ml of a 3% aqueous solution in demineralized water shaken 20 times within 10 seconds; graded weakly foaming, foaming or highly foaming. It counts as physicochemical.
Data set [2] is described as follows: Shell wheel test (corrosion inhibition). The conditions noted are these: carbon steel coupons in saltwater/petroleum mixture, pH 3.5, 70° C., 24 hours; 50 ppm of a 40% solution of the inhibitor; from mass decrease based on a blank value. How it is done:
The inventive compounds were tested as corrosion inhibitors in the Shell wheel test. Coupons of carbon steel (DIN 1.1203 with surface area 15 cm^2) were immersed into a saltwater/petroleum mixture (9:1.5% NaCl solution adjusted to pH 3.5 with acetic acid) and exposed to this medium at a peripheral speed of 40 rpm at 70° C. for 24 hours. The dosage of the inhibitor was 50 ppm of a 40% solution of the inhibitor. The protection values were calculated from the mass decrease of the coupons based on a blank value.

A short description of data set [3]: Biodegradability (OECD 306).

Read-outs that look alike come from different tables or passages of the source.

As to `CCCCCCCCNC(CCSC)C(=O)O.NCCO` (racemic) [compound from example 1, N-Octyl-DL-methionine monoethanolammonium salt], the “Toxicity EC50” value in the data set with Skeletonema costatum stood at 44.5 µg/mL. Moreover, in data set [1], the “Protection after 10 min” value is 60.5%, the “Protection after 30 min” value turned out to be 75.3% and the “Protection after 60 min” value is reported as 88.4%. For the same compound, in the data set “Shaking foam test”, the Foaming behavior result was “weakly foaming”. In data set [2], the Ø % protection is 63%. The Biodegradability in data set [3] came out at 92.4%.
Consider `CCCCCCCCNC(CCSC)C(=O)O.OCCN(CCO)CCO` (racemic) [compound from example 2, N-Octyl-DL-methionine triethanolammonium salt], for which, in data set [1], the “Protection after 10 min” value was 62.9%, the “Protection after 30 min” value amounted to 76.1% and the “Protection after 60 min” value was found to be 90.0%. In addition, the Foaming behavior result in the data set “Shaking foam test” was “weakly foaming”. Besides, the Ø % protection in data set [2] came to 72%.
`CCCCCCCC/C=C\CCCCCCCCNC(CCSC)C(=O)O.OCCN(CCO)CCO` (racemic) [compound from example 8, N-Oleyl-DL-methionine triethanolammonium salt]: in the data set with Skeletonema costatum, the “Toxicity EC50” value came to 13.6 µg/mL. In addition, in data set [1], the “Protection after 10 min” value was 80.1%, the “Protection after 30 min” value came to 94.5% and the “Protection after 60 min” value is on record as 98.6%. Further, in “Shaking foam test”, the Foaming behavior result was “weakly foaming”. The Ø % protection in data set [2] is recorded as 85%. Also, the Biodegradability in data set [3] came out at 85.4%.
`CCCCCCCCCCCC(=O)NCC(=O)[O-].[Na+]` [comparative 2, N-lauroylglycine sodium salt, reference compound] returned a concentration giving a half-maximal response (EC50) with Skeletonema costatum of 8.5 µg/mL. Further, in data set [1], the “Protection after 10 min” value is recorded as 15.4%, the “Protection after 30 min” value is 35.2% and the “Protection after 60 min” value is 42.9%. The Foaming behavior result in the data set “Shaking foam test” was “highly foaming”. The Ø % protection in data set [2] worked out at 45%. The Biodegradability in data set [3] (OECD 306) is given as 44.5%.
As to `CCCCCCCCCCCCCC(=O)N[C@@H](CC(=O)[O-])C(=O)[O-].[Na+].[Na+]` [comparative 3, N-myristoyl-L-aspartic acid disodium salt, reference compound], the 50% effective concentration (EC50) in the data set on Skeletonema costatum came to 9.5 µg/mL. Further, in data set [1], the “Protection after 10 min” value turned out to be 20.0%, the “Protection after 30 min” value was determined as 42.6% and the “Protection after 60 min” value is reported as 47.1%. Moreover, the Foaming behavior result in the data set “Shaking foam test” is “highly foaming”. Further, the Ø % protection in data set [2] worked out at 38%. The compound also had a Biodegradability in data set [3] (OECD 306) of 50.3%.
With “N-Cocoyl-DL-methionine N,N-diethyl-(2-hydroxyethyl)-ammonium salt [compound from example 6]”, in the data set on Skeletonema costatum, the “Toxicity EC50” value was 15.4 µg/mL. Moreover, in data set [1], the “Protection after 10 min” value came out at 92.0%, the “Protection after 30 min” value was 96.7% and the “Protection after 60 min” value amounted to 99.0%. In addition, the Ø % protection in data set [2] came out at 83%.
For “N-Cocoyl-DL-methionine morpholinium salt [compound from example 5]”, in data set [1], the “Protection after 10 min” value is reported as 90.3%, the “Protection after 30 min” value was 94.2% and the “Protection after 60 min” value amounted to 98.9%. The Ø % protection in data set [2] is 85%.
For the compound “N-Dodecyl-DL-methionine cyclohexylammonium salt [compound from example 3]”, the “Toxicity EC50” value in the data set with Skeletonema costatum is 22.3 µg/mL. In data set [1], the “Protection after 10 min” value is given as 76.4%, the “Protection after 30 min” value was 88.4% and the “Protection after 60 min” value is listed as 97.2%. Further, the Foaming behavior result in the data set “Shaking foam test” was “weakly foaming”. For the same compound, the Ø % protection in data set [2] stood at 78%. In data set [3] (OECD 306), this compound displayed a Biodegradability of 84.0%.
Regarding “N-Dodecyl-DL-methionine dibutylammonium salt [compound from example 4]”, in data set [1], the “Protection after 10 min” value came to 74.8%, the “Protection after 30 min” value was found to be 87.3% and the “Protection after 60 min” value worked out at 96.8%. For the same compound, the Foaming behavior result in “Shaking foam test” was “weakly foaming”. Moreover, the Ø % protection in data set [2] came to 80%.
For “N-Oleyl-DL-methionine 2-(2-hydroxyethoxy)ethylammonium salt [compound from example 7]”, in that order: 78.5%, 92.9%, 98.5%, “weakly foaming” and 82%.

A word on the EC50: it is the concentration at which the effect is half-maximal.
